Test results as given in patent US20080318993A1 (Endo Pharmaceuticals, Inc., priority 2007, published 2008).

Legend:
[1] = Example 5: plasma pharmacokinetics of EN3202 20 mg in hepatic impairment vs healthy controls; design: AUC point estimate, mild hepatic impairment vs healthy controls / Cmax point estimate, mild hepatic impairment vs healthy controls: unit not given beside the values; conditions: for AUCT / Cmax / T½ / λz / AUC: mean (SD); for Tmax: median (range); for AUC: plasma, single 20 mg EN3202, fasting; for mean (±SD) ratio of plasma metabolite AUC to oxymorphone AUC: AUC converted to molar concentrations; for increase in average AUC relative to controls: arithmetic means; for conversion of oxymorphone to the metabolite reduced by: from mean plasma metabolite ratios
Method: (§1) While in the clinic, the subjects were to refrain from strenuous physical activity.
All study medications were supplied by the sponsor. […] A single 20 mg dose EN3202 was administered following an overnight fast (from approximately 22:00 on the evening prior to dose administration) at approximately 08:00, and participants were not allowed to eat until at least four hours after the dose.
All doses were administered with 240 mL of ambient water. Participants were instructed to drink all of the water.
Pharmacokinetic parameters were calculated using model-independent methods.
All pharmacokinetic results are summarized using appropriate descriptive statistics. […] One-way ANOVA was conducted using the model PKVAR=group, where group was mild hepatic impairment, moderate-severe hepatic impairment, or healthy control. Point estimates of the impaired versus control group differences and the corresponding 90% confidence limits were constructed.

[2] = 10 mg oral oxymorphone, cited from earlier work
[3] = Example 5: urinary excretion of oxymorphone and metabolites in hepatic impairment vs healthy controls; conditions: for mean amount excreted in the urine: percent of administered dose, through 120 hours; for conversion of oxymorphone to the metabolite reduced by: from urine ratios
Description: as §1

[4] = moderate-severe hepatic impairment

Row | Structure (SMILES) | AUCT ([1]; Healthy Controls) | Cmax ([1]; Healthy Controls) | T½ ([1]; Healthy Controls) | λz ([1]; Healthy Controls) | Tmax ([1]; Healthy Controls) | AUC ([1]; Healthy Controls) | AUCT ([1]; Mild Impairment) | Cmax ([1]; Mild Impairment) | T½ ([1]; Mild Impairment) | λz ([1]; Mild Impairment) | Tmax ([1]; Mild Impairment) | AUC ([1]; Mild Impairment) | AUCT ([1]; Moderate-Severe Impairment) | Cmax ([1]; Moderate-Severe Impairment) | T½ ([1]; Moderate-Severe Impairment) | λz ([1]; Moderate-Severe Impairment) | Tmax ([1]; Moderate-Severe Impairment) | AUC ([1]; Moderate-Severe Impairment) | mean (±SD) ratio of plasma metabolite AUC to oxymorphone AUC ([1]; controls) | conversion of oxymorphone to the metabolite reduced by ([1]; mild hepatic impairment) | also measured
1 | CN1CC[C@]23c4c5ccc(O)c4O[C@H]2C(O)CC[C@@]3(O)[C@H]1C5 (stereo partly drawn) [6-OH-oxymorphone, 6-hydroxy oxymorphone] | 10.80 (9.65) ng · hr/mL | 0.72 (0.32) ng/mL | 19.19 (11.75) hr | 0.0532 (0.0356) hr^−1 | 1.25 (1.0-4.0) hr | 14.76 (11.51) ng · hr/mL | 14.11 (9.73) ng · hr/mL | 1.12 (0.79) ng/mL | 17.54 (13.12) hr | 0.0545 (0.0269) hr^−1 | 1.25 (0.5-3.0) hr | 17.35 (11.17) ng · hr/mL | 29.25 (20.17) ng · hr/mL | 1.78 (1.00) ng/mL | 13.87 (8.02) hr | 0.0632 (0.0303) hr^−1 | 1.75 (1.0-6.0) hr | 32.12 (19.80) ng · hr/mL | 0.66 (0.30) | approximately 17% | increase in average AUC relative to controls ([1]; mild hepatic impairment): 1.18 fold; AUC increase relative to healthy controls ([1]; mild hepatic impairment, log-transformed comparison): 1.36 fold; mean (±SD) ratio of plasma metabolite AUC to oxymorphone AUC ([1]; mild impairment): 0.55 (0.10); Cmax increase relative to healthy controls ([1]; mild impairment, log-transformed comparison): 1.40 fold; conversion of oxymorphone to the metabolite reduced by [1, 4]: ~26%; mean (±SD) ratio of plasma metabolite AUC to oxymorphone AUC ([1]; moderate-severe impairment): 0.49 (0.37); increase in average AUC relative to controls ([1]; moderate-severe impairment): 2.18 fold; Urinary recovery, conjugated [2]: 2.6%; Urinary recovery, free [2]: ~0.3%; Urinary recovery, of the dose ([2]; free plus conjugated): approximately 3%; urinary excretion essentially complete by ([3]; after single 20 mg dose): ≤ 96 h; mean amount excreted in the urine ([3]; control group): 0.25%; mean amount excreted in the urine ([3]; mild hepatic impairment): 0.71%; mean amount excreted in the urine [3, 4]: 0.88%
2 | CN1CC[C@]23c4c5ccc(O[C@@H]6O[C@H](C(=O)O)[C@@H](O)[C@H](O)[C@H]6O)c4O[C@H]2C(=O)CC[C@@]3(O)[C@H]1C5 [Oxymorphone-3-glucuronide, oxymorphone-3-glucuronide] | 2886.8 (883.9) ng · hr/mL | 234.3 (41.7) ng/mL | 8.89 (3.00) hr | 0.0859 (0.0264) hr^−1 | 3.0 (1.5-4.0) hr | 2979.6 (896.1) ng · hr/mL | 2836.7 (1091.9) ng · hr/mL | 274.1 (95.8) ng/mL | 8.21 (3.87) hr | 0.0974 (0.0367) hr^−1 | 3.0 (3.0-4.0) hr | 2954.1 (1136.2) ng · hr/mL | 2629.3 (1457.8) ng · hr/mL | 212.0 (100.5) ng/mL | 7.40 (2.98) hr | 0.1075 (0.0435) hr^−1 | 3.5 (3.0-4.0) hr | 2713.9 (1498.6) ng · hr/mL | 104.1 (39.5) | approximately 35% | circulating concentrations exceed those of the parent compound by ([1]; healthy control group): approximately 100 fold; AUC point estimate, mild hepatic impairment vs healthy controls ([1]; mild hepatic impairment): 0.972; Cmax point estimate, mild hepatic impairment vs healthy controls ([1]; mild hepatic impairment): 1.133; mean (±SD) ratio of plasma metabolite AUC to oxymorphone AUC ([1]; mild impairment): 67.2 (27.0); conversion of oxymorphone to the metabolite reduced by [1, 4]: ~56%; AUC as percent of control ([1]; moderate-severe impairment): approximately 80%; Cmax as percent of control ([1]; moderate-severe impairment): approximately 80%; circulating concentrations exceed those of the parent compound by ([1]; moderate-severe impairment): 45 fold; mean (±SD) ratio of plasma metabolite AUC to oxymorphone AUC ([1]; moderate-severe impairment): 45.52 (39.2); mean metabolite-to-parent ratio lower than in the control group ([1]; moderate-severe impairment, in both plasma and urine): 2,3 fold; mean amount excreted in the urine ([3]; control group): 38.1%; mean ratio metabolite:oxymorphone excreted in the urine ([3]; healthy controls): 79.05; mean ratio metabolite:oxymorphone excreted in the urine ([3]; mild hepatic impairment): 39.43; conversion of oxymorphone to the metabolite reduced by ([3]; mild hepatic impairment): approximately 50%; mean amount excreted in the urine ([3]; mild hepatic impairment): 39.3%; mean ratio metabolite:oxymorphone excreted in the urine [3, 4]: 33.76; conversion of oxymorphone to the metabolite reduced by [3, 4]: ~57%; mean amount excreted in the urine [3, 4]: 33.7%
